Measurements from patent US6781000B1, “Alpha-ketoamide inhibitors of 20S proteasome” (CV Theurapeutics, Inc., priority 1998, dated 2004).
pIC50: −log10 of the molar value.

biological target: T1, chymotrypsin-like activity of 20S proteasome (Bos taurus, UniProt Q2TBX6+Q32KL2); assay: 20S proteasome chymotryptic activity inhibition assay (Suc-Leu-Leu-Val-Tyr-AMC cleavage); format: biochemical; settings: 2 μg 20S proteasome from bovine brain, 50 μM fluorogenic substrate, 15 minutes at 37° C., pH7.5
T1 construct: was purified to homogeneity from bovine brain according to published methods; from tissue; host or cells: bovine brain
Procedure: Compounds of this invention prepared according to the method of Example 1 were tested as follows. The 20S catalytic subunit of the proteasome (also known as the multicatalytic proteinase complex) was purified to homogeneity from bovine brain according to published methods (Wilk S. and Orlowski,M 1983, 40 842 J.Neurochem). The chymotryptic activity of the complex is measured by the increase in fluorescence following cleavage of the substrate peptide succinyl-leucine-leucine-valine-tyrosine-7-amino-4methyl coumarin. The standard in vitro assay consists of 2 μg 20S proteasome, 0.1-100 μg/ml proteasome inhibitor in 200 μl 50 mM HEPES, containing 0.1% sodium dodecyl sulphate, pH7.5. The proteolytic reaction is initiated by the addition of 50 μM flourogenic peptide substrate and allowed to progress for 15 minutes at 37° C. The reaction is terminated by the addition of 100 μL of 100 mM acetate buffer, pH4.0. The rate of proteolysis is directly proportional to the amount of liberated aminomethylcoumarin which is measured by fluorescent spectroscopy (EX 370 nm, EM 430 nm).

| Compound | pIC50 | IC50 for the inhibition of the chymotrypsin-like activity of 20S proteasome [µg/mL] |
| --- | --- | --- |
| CC(C)C[C@@H](NC(=O)C(=O)Cc1c[nH]c2ccccc12)C(=O)N[C@H](CC(C)C)C(=O)NCc1ccccc1 [Compound 3] | < 4.71 | – |
| CC(C)CC(NC(=O)C(=O)Cc1c[nH]c2ccccc12)C(=O)NC(CC(C)C)C(=O)NCC(=O)O (stereo not shown) [Compound 5] | < 4.69 | – |
| CC(C)CC(NC(=O)C(=O)Cc1ccccc1)C(=O)NC(CC(C)C)C(=O)NCC(=O)O (stereo not shown) [Compound 6] | – | >10 |
| CC(C)CC(NC(=O)C(=O)Cc1ccccc1)C(=O)NC(CC(C)C)C(=O)NCC(=O)NCc1ccccc1 (stereo not shown) [Compound 7] | – | >10 |
| CC(C)CC(NC(=O)C(=O)c1c[nH]c2ccccc12)C(=O)NC(CC(C)C)C(=O)NCC(=O)NCc1ccccc1 (stereo not shown) [Compound 8] | – | >10 |
| CC(C)CC(NC(=O)C(=O)Cc1c[nH]c2ccccc12)C(=O)NC(CC(C)C)C(=O)NCC(=O)NCc1ccccc1 (stereo not shown) [Compound 9] | – | >10 |
| CC(C)CC(NC(=O)C(CC(C)C)NC(=O)C(=O)c1c[nH]c2ccccc12)C(=O)O (stereo not shown) [Compound 10] | – | >10 |
| CC(C)CC(NC(=O)C(CC(C)C)NC(=O)C(=O)c1ccccc1)C(=O)O (stereo not shown) [Compound 11] | – | >10 |
| CC(C)CC(NC(=O)C(=O)c1ccccc1)C(=O)NC(CC(C)C)C(=O)NCC(=O)O (stereo not shown) [Compound 12] | – | >10 |
| CC(C)CC(NC(=O)C(=O)Cc1ccccc1)C(=O)NC(CC(C)C)C(=O)NC(Cc1ccccc1)C(=O)O (stereo not shown) [Compound 13] | – | >10 |
| CC(C)CC(NC(=O)C(=O)c1c[nH]c2ccccc12)C(=O)NC(CC(C)C)C(=O)NC(Cc1ccccc1)C(=O)O (stereo not shown) [Compound 14] | – | >10 |
| CC(C)C[C@H](NC(=O)C(=O)Cc1c[nH]c2ccccc12)C(=O)N[C@H](CC(C)C)C(=O)N[C@H](C(=O)O)C(C)C [Compound 17] | < 4.72 | – |
| CC(C)C[C@H](NC(=O)[C@@H](CC(C)C)NC(=O)[C@H](CC(C)C)NC(=O)C(=O)Cc1c[nH]c2ccccc12)C(=O)O [Compound 18] | < 4.73 | – |
| CCC(C)C(NC(=O)C(CC(C)C)NC(=O)C(CC(C)C)NC(=O)C(=O)Cc1c[nH]c2ccccc12)C(=O)O (stereo not shown) [Compound 19] | – | >10 |
| CC(C)CC(NC(=O)C(=O)Cc1c[nH]c2ccccc12)C(=O)NC(CC(C)C)C(=O)NC(C)C(=O)O (stereo not shown) [Compound 20] | – | >10 |
| CC(C)CC(NC(=O)C(=O)Cc1c[nH]c2ccccc12)C(=O)NC(CC(C)C)C(=O)NC(Cc1ccc(O)cc1)C(=O)O (stereo not shown) [Compound 21] | – | >10 |
| CC(C)CC(NC(=O)C(CC(C)C)NC(=O)C(CC(C)C)NC(=O)C(=O)Cc1c[nH]c2ccccc12)C(=O)O (stereo not shown) [Compound 22] | – | >10 |
| CC(C)C[C@H](NC(=O)[C@@H](CC(C)C)NC(=O)[C@@H](CC(C)C)NC(=O)C(=O)Cc1c[nH]c2ccccc12)C(=O)O [Compound 23] | < 4.73 | – |
| CCC(C)C(NC(=O)C(CC(C)C)NC(=O)C(CC(C)C)NC(=O)C(=O)Cc1c[nH]c2ccccc12)C(=O)O (stereo not shown) [Compound 24] | – | >10 |
| CC(C)CC(NC(=O)C(=O)Cc1c[nH]c2ccccc12)C(=O)NC(CC(C)C)C(=O)NC(C)C(=O)O (stereo not shown) [Compound 25] | – | >10 |
| CC(C)CC(NC(=O)C(=O)Cc1c[nH]c2ccccc12)C(=O)NC(CC(C)C)C(=O)NC(Cc1ccc(O)cc1)C(=O)O (stereo not shown) [Compound 26] | – | >10 |
| CC(C)CC(NC(=O)C(=O)Cc1c[nH]c2ccccc12)C(=O)NC(CC(C)C)C(=O)NC(C(=O)O)C(C)C (stereo not shown) [Compound 27] | – | >10 |
